{"source": "ChEMBL document CHEMBL1141555", "about": "“Synthesis and biological activity of piperazine and diazepane amides that are histamine H3 antagonists and serotonin reuptake inhibitors” (Bioorg Med Chem Lett, 2008)", "format_in_all_cases": "ADME, organism-based", "key": {"[1]": {"experiment": "Drug level in rat brain at 10 mg/kg, po", "parameters": "dose 10 mg/kg, route oral"}, "[2]": {"experiment": "Drug level in rat plasma at 10 mg/kg, po", "parameters": "dose 10 mg/kg, route oral"}, "[3]": {"experiment": "Half life in iv dosed rat", "conditions": "in vivo"}, "[4]": {"experiment": "Bioavailability in rat", "conditions": "in vivo"}, "[5]": {"experiment": "Volume of distribution at steady state in rat", "conditions": "in vivo, read-out: Vdss"}, "[6]": {"experiment": "Clearance in rat", "conditions": "in vivo"}}}
{"smiles": "CNCc1cc(C(=O)N2CCN(C3CC3)CC2)ccc1Oc1ccc(Cl)c(Cl)c1", "values": [{"measurement": "Cmax", "setting": "[1]", "value": "> 1000", "unit": "nM"}, {"measurement": "Cmax", "setting": "[2]", "value": "> 1000", "unit": "nM"}, {"measurement": "half-life", "setting": "[3]", "value": 16.1, "unit": "h"}, {"measurement": "bioavailability", "setting": "[4]", "value": 93, "unit": "%"}, {"measurement": "Vd", "setting": "[5]", "value": 13, "unit": "L/kg"}, {"measurement": "clearance", "setting": "[6]", "value": 10.2, "unit": "mL/min/kg"}]}
